Reference: US9445596B2, “Small molecule compounds for the control of nematodes” (California Institute of Technology, priority 2011, dated 2016)
Entries after “also recorded” stand apart in the source; their conditions may differ.

Assays:
[1] = test system: AIA interneurons; experiment: Calcium imaging (G-CaMP), AIA interneurons; assay type: in vivo, C. elegans
Source text: (§1) Transgenic lines that express the genetically encoded Ca^2+ sensor in ASK (kyEx2866) and AIA (kyEx2916) (Macosko et al., Nature 458:1171-75 (2009), which is hereby incorporated by reference in its entirety) were used for calcium imaging. Young adults or adult worms were inserted into an “Olfactory chip” microfluidic device (Chronis et al., Nat. Methods 4:727-31 (2007), which is hereby incorporated by reference in its entirety). Dilutions of icas#3 were done with S-basal buffer (with no cholesterol). As stock solutions of icas#3 contained small amounts of ethanol, equivalent amounts of ethanol were added to the S-basal control flow.
(§2) Imaging was conducted using an inverted Zeiss microscope equipped with an Andor camera. Exposure time for image acquisition was 300 milliseconds. Before imaging the ASK neuron, the worm was exposed to blue light for 3 minutes as ASK responds to the blue light itself. […] Movies were analyzed using custom-made Matlab scripts. The first peak of fluorescence immediately after exposure to buffer or icas#3 was chosen for calculating the average change in fluorescence upon exposure to either buffer or icas#3. The value for this maximum was then subtracted from the mean fluorescence during the 5 seconds before the delivery of icas#3/buffer (corresponding to the region between 5 to 10 seconds in FIG. 2D).

[2] = test system: ASK neurons; experiment: Calcium imaging (G-CaMP), ASK neurons; assay type: in vivo, C. elegans; conditions: 1 pM to 1 μM
Source text: as §1, §2

[3] = test system: C. elegans hermaphrodites; experiment: Quadrant chemotaxis assay; assay type: in vivo; conditions: for chemotaxis of hermaphrodites: 1 pM, all tested strains
Protocol: Chemotaxis to both non-indole and indole ascarosides was assessed on 10 cm four-quadrant petri plates (Wicks et al., Dev. Biol. 221:295-307 (2000), which is hereby incorporated by reference in its entirety). Each quadrant was separated from adjacent ones by plastic spacers (FIG. 1B). Pairs of opposite quadrants were filled with nematode growth medium (NGM) agar containing either indole ascarosides or non-indole ascarosides at different concentrations. Animals were washed gently in a S-basal buffer, placed in the center of a four-quadrant plate with ascarosides in alternating quadrants, and scored after 15 minutes and 30 minutes. A chemotaxis index was calculated as: (the number of animals on ascaroside quadrants minus the number of animals on buffer quadrants)/(total number of animals).
Chemotaxis to hbas#3 was assessed on 10 cm four-quadrant petri plates (Wicks et al., Dev. Biol. 221:295-307 (2000), which is hereby incorporated by reference in its entirety). Each quadrant was separated from adjacent ones by plastic spacers. Pairs of opposite quadrants were filled with nematode growth medium (NGM) agar containing different concentrations of hbas#3. Animals were washed gently in an S-basal buffer and placed in the center of a four-quadrant plate with ascarosides in alternating quadrants, and scored after 15 minutes and 30 minutes. A chemotaxis index was calculated as: (the number of animals on ascaroside quadrants minus the number of animals on buffer quadrants)/(total number of animals).

[4] = test system: C. elegans hermaphrodites; experiment: Measurement of locomotory parameters (automated worm tracking); assay type: in vivo
Protocol: Reversal frequency and velocity were measured using an automated worm-tracking system (Pungaliya et al., PNAS 106:7708-13 (2009); Srinivasan et al., Nature 454:1115-18 (2008), which are hereby incorporated by reference in their entirety).

[5] = test system: C. elegans hermaphrodites and males; experiment: Spot attraction assay; assay type: in vivo
Protocol: The spot attraction assays were conducted according to a previously reported method (Pungaliya et al., PNAS 106:7708-13 (2009); Srinivasan et al., Nature 454:1115-18 (2008), which are hereby incorporated by reference in their entirety). For both C. elegans hermaphrodites and males, 50-60 worms were harvested daily at the fourth larval stage (L4) and stored segregatedly by sex at 20° C. overnight, to be used as young adults the following day. For the competition experiments, two conditions were used: 120 nM ascr#3 and 10 nM icas#3 (Condition 1), or 12 μM ascr#3 and 1 μM icas#3 (Condition 2) in water containing 10% ethanol. Aliquots were stored at −20° C. in 20 μL tubes. 10% ethanol in water was used as control.
Attraction assays with hbas#3 were conducted as previously reported (Srinivasan et al., Nature 454:1115-18 (2008); Pungaliya et al., Proc. Natl. Acad. Sci. U.S.A. 106:7708-13 (2009), which are hereby incorporated by reference in their entirety). For the attraction assays, 50-60 hermaphrodite worms were harvested daily at the early fourth larval stage (L4) and stored at 20° C. overnight to be used as young adults the following day. Hbas#3 was dissolved in water containing 10% ethanol. Aliquots were stored at −20° C. in 20 μL tubes. 10% ethanol in water was used as control.

[6] = test system: C. elegans; experiment: Aggregation assay; assay type: in vivo
Protocol: Aggregation behavior of worms was measured using assays reported in de Bono & Bargmann, Cell 94:679-89 (1998), which is hereby incorporated by reference in its entirety. Aggregation assays were conducted on standard NGM plates. Plates containing indole ascarosides were made by adding the indole ascaroside stock solution to the NGM media before they were poured onto the plates. These plates were dried at room temperature for 2 to 3 days. Control plates were treated similarly, except that ethanol solutions instead of icas solutions were added to the plates, corresponding to the amount of ethanol introduced via the icas solutions. Final ethanol concentrations of the plates were below 0.1% for all conditions. After drying, both control plates and plates containing indole ascarosides were seeded with 150 μl of an overnight culture of E. coli OP50 using a micropipette, and were allowed to dry for 2 days at room temperature. For “low worm density” experiments, 20 worms were placed onto the lawn and left at 20° C. for 3 hours. For “high worm density” experiments, approximately 120 worms were placed onto the bacterial lawn and left at 20° C. for 3 hours. Aggregation behavior was quantified as the number of animals that were in touch with two or more animals at greater than 50% of their body length.

[7] = test system: ASI sensory neurons; conditions: McGrath et al., Nature 2011; cited from earlier work
[8] = social wild-type strains (RC301 and CB4856) and npr-1(ad609) hermaphrodites
[9] = ASK-ablated hermaphrodites on icas#3 plates

Compound: C[C@H](CCCC/C=C/C(=O)O)O[C@@H]1O[C@@H](C)[C@H](OC(=O)c2c[nH]c3ccccc23)C[C@H]1O [icas#3]
- G-CaMP fluorescence signals in AIA interneurons ([1]; 1 μM): induces G-CaMP fluorescence signals
- G-CaMP fluorescence in the AIA neurons ([1]; in vivo): significantly increased G-CaMP fluorescence
- Ca^2+ transients in ASK neurons [2]: no detection of Ca^2+ transients
- chemotaxis of hermaphrodites ([3]; after 15 minutes): attracted
- chemotaxis of hermaphrodites ([3]; after 30 minutes): attracted
- lowest concentration resulting in strong attraction of hermaphrodites (as low as) ([3]; both in the presence and absence of food): 1 pM
- response of daf-22 hermaphrodites ([3]; daf-22 hermaphrodites): as strongly as N2 worms
- attraction of social hermaphrodites [3, 8]: strongly attracted
- worm velocity ([4]; 1-10 pM): not significantly reduced
- forward velocity of ASK-ablated hermaphrodites [4, 9]: do not display reduced forward velocity
- reversal frequency of ASK-ablated hermaphrodites [4, 9]: does not increase; also recorded: neither increased reversal frequency
- mean stopped duration ([4]; aggregation-inducing concentrations, N2 hermaphrodites): strongly increase mean stopped duration
- attraction in the spot attraction assay ([5]; 1 pmol, N2 hermaphrodites and him-5 males): attractive to both C. elegans sexes
- attraction after ablation of both ASI and ASK neurons ([5]; ASI- and ASK-ablated hermaphrodites): did not result in a more significant loss of attraction compared to ASK ablation alone
- attraction after ablation of the ASI neurons ([5]; ASI-ablated hermaphrodites): no significant effect
- attraction of AIA-deficient worms ([5]; MEC-4 expressed in AIA interneuron): did not show any attraction
- attraction of daf-22 hermaphrodites ([5]; daf-22 hermaphrodites): attracted; also recorded: as strongly as N2 worms
- attraction after ablation of ASK sensory neurons ([5]; hermaphrodites lacking ASK neurons): near complete loss of attraction
- attraction in the spot attraction assay ([5]; high concentrations, males and hermaphrodites): attracted both males and hermaphrodites
- attraction of hermaphrodites ([5]; low concentrations, N2 hermaphrodites): strongly attractive to hermaphrodites
- attraction of males ([5]; low concentrations, males): no longer attracted
- attraction of social hermaphrodites [5, 8]: attracted; also recorded: strongly attracted
- attraction after ablation of the RMG interneuron ([5]; wild-type (N2) and ncs-1::gfp hermaphrodites, RMG ablated): does not affect attraction; also recorded: did not affect icas#3 response
- increase in aggregation of N2 hermaphrodites ([6]; high worm density (120 worms per 5 cm plate)): ≤ 3 fold
- average clump size ([6]; icas#3-mediated aggregation): 3-5 worms
- concentrations at which active as hermaphrodite attractants and aggregation signals ([6]; in vivo): femtomolar to picomolar
- concentrations that induce maximal aggregation ([6]; in vivo): 1 to 10 pM
- lowest concentration with very strong increase in aggregation (as low as) ([6]; low worm density (20 worms per 5 cm plate), solitary and social hermaphrodites): 10 fM
- increase in aggregation of N2 hermaphrodites ([6]; low worm density, 1 pM): ≤ 4 fold
- aggregation of daf-22 hermaphrodites compared with N2 ([6]; low worm density, 1 pM and 10 pM): less aggregation than N2 worms at 1 pM icas#3 but not at 10 pM icas#3
- aggregation of hermaphrodites lacking the ASK neurons ([6]; low worm density, any of the tested concentrations): do not aggregate; also recorded: did not aggregate
- aggregation of npr-1(ad609) hermaphrodites ([6]; low worm density, over the entire tested concentration range, without a drop off at higher concentrations): increased aggregation
- aggregation at 1 nM ([6]; low worm density, social strain CB4856, 1 nM): not significantly different from the control
- concentration of maximal aggregation ([6]; low worm density, social strain CB4856, bell-shaped response curve): 1 pM
- aggregation of him-5 males ([6]; plates containing 100 fM or 100 pM): significantly increased

Compound: C[C@@H]1O[C@@H](OCCC(=O)O)[C@H](O)C[C@H]1O [ascr#5]
- calcium transients in the ASI sensory neurons [7]: does not elicit calcium transients
